{"source": "patent US20210190775A1", "about": "“COMPOSITIONS AND METHODS FOR TAGGING AND DETECTING NUCLEIC ACIDS” (Nanoco Technologies Ltd., priority 2019, published 2021)", "key": {"[1]": {"tested_on": "A431 human squamous cell carcinoma", "assay": "Labelling of nuclear and cytoplasmic DNA or RNA in live cells", "assay_type": "cell-based", "details": "conjugate 50 μg/mL or Hoechst 33342 0.2 μg/mL, 15h"}, "[2]": {"tested_on": "DNA threads mounted on a glass slide", "assay": "Detection of DNA mounted on a glass slide by fluorescence microscopy", "assay_type": "binding", "details": "DNA 0.3 μg/mL, final dye concentration 0.4 mg/mL, 50× objective, DAPI filter cube", "experimental": "The DNA binding and enhanced detection ability were also observed using trace amounts of DNA mounted on a glass slide. In this experiment, a DNA solution was prepared in DI water at 0.3 μg/mL and was mixed with the QD-fluorescent dye conjugate nanoparticles (Ex. 1) or with the Hoechst 33342 only (control experiment) at a final dye concentration of 0.4 mg/mL. A 3 μL solution of each composition was mounted on a slide, smeared and let to dry. The slide was then observed under a fluorescence microscope (Olympus BX51) using 50× objective and a DAPI filter cube (UMWU2) and equipped with an Osram HBO50W/AC L1 Short arc mercury lamp as an excitation source. […] All the images were taken using the same microscopy settings. FIG. 6 indicates an enhanced ability to detect DNA on a glass slide (zoomed in to show DNA strands covered with Hoechst-QDs)."}}}
{"smiles": "CCOc1ccc(-c2nc3cc(-c4nc5cc(N6CCN(C)CC6)ccc5[nH]4)ccc3[nH]2)cc1.Cl.Cl.Cl", "note": "[Hoechst 33342, 2′-(4-ethoxyphenyl)-5-(4-methyl-1-piperazinyl)-2,5′-bi-1H-benzimidazole trihydrochloride]", "values": [{"measurement": "labelling of cells (fluorescence microscopy)", "setting": "[1]", "result": "the nuclei were stained but without the ability to detect cell-cell communication"}, {"measurement": "detection of DNA threads on glass slide", "setting": "[2]", "result": "almost no signal was observed"}]}
